Assay results: US20250082651A1, “GANAXOLONE FOR USE IN TREATING GENETIC EPILEPTIC DISORDERS” (Marinus Pharmaceuticals, Inc., priority 2017, published 2025)

Experiments:
rabbits = assay: Local tolerance study in rabbits; assay type: in vivo, rabbit
Experimental: When given IV to rats and dogs, the main dose limiting toxicity finding was sedation. The no observed adverse effect level (NOAEL) after IV dosing in rats for 14 days was established at 42 mg/kg/day for males and 30 mg/kg/day for females. The NOAEL in dog after administration of ganaxolone by IV bolus followed by continuous IV infusion for 28 days was 7.20 mg/kg/day, which corresponded to a steady-state concentration of approximately 330 ng/mL and 333 ng/mL. There were no findings in a local tolerance study in rabbits.

[1] = tested on: children with rare genetic epilepsies; assay: Phase 2 open-label trial, safety, tolerability and disposition; assay type: in vivo, human
Text: Example 3 concerns a Phase 2 Multicenter, Open-Label Proof-of-Concept Trial of ganaxolone (GNX) in cohorts of children having genetic epilepsies (PCDH19, CDKL5 LGS, and CSWS) (ClinicalTrials.gov Identifier: NCT02358538). There were 11 female children with PCDH19 epilepsy between 5-16 years old with a confirmed genetic mutation. There were 6 female and 1 male children with confirmed genetic mutations in the CDKL5 cohort. There were 10 children in the Lennox Gastaut Syndrome cohort. Two children with CSWS were enrolled into the study. The study was conducted with 12 weeks baseline, and up to 26 weeks of treatment followed by a 52 week open label treatment. The primary efficacy was the percentage change in seizure frequency per 28 days relative to baseline calculated using daily seizure diary. [Time Frame: 26 weeks]. Secondary Outcome Measures were: Clinician Global Impression of Change score as assessed by questionnaire. [Time Frame: 26 Weeks]; Patient Global Impression of Change score as assessed by questionnaire. [Time Frame: 26 Weeks]; Evaluation of safety and tolerability of open-label ganaxolone as adjunctive therapy for uncontrolled seizures in children with rare genetic epilepsies, based on adverse event log and other clinical safety assessments. [Time Frame: 26 weeks]; Responder rates [Time Frame: 26 weeks]; and Seizure free days [Time Frame: 26 weeks].
Following screening and baseline evaluations, consenting patients enrolled into a 26-week study during which investigators were allowed to flexibly dose ganaxolone up to a dose of 1,800 mg/day for patients whose body weight was >30 kg, or up to 63 mg/kg/day for patients whose body-weight was <30 kg. The primary efficacy measure is % change from baseline in the 28-day seizure frequency count. Safety and tolerability were within the secondary objectives of the study.
A total of 30 subjects were enrolled in the study: one-half (15 subjects) completed the 26-week open-label treatment period and one-half (15 subjects) discontinued the study. In total, the main reasons for study discontinuation in the safety population were lack of efficacy (8 subjects [26.7%]), and AE or SAE (4 subjects [13.3%)]). All 30 (100.0%) subjects were in the safety and MITT population.
Ganaxolone was generally safe and well-tolerated in subjects with epilepsy disorders. […] In the CDD cohort, 6 subjects (85.7%) experienced a total of 45 TEAEs; in the CSWS cohort, 1 subject (50.0%) had 7 TEAEs; in the LGS cohort, 7 subjects (70.0%) had 24 TEAEs; and in the PCDH19 cohort, 11 subjects (100.0%) had 95 TEAEs.
No deaths were reported in this study.

female rats = assay: Pulmonary safety pharmacology in female rats; assay type: in vivo, rat; conditions: doses up to 40 mg/kg
[2] = biological target: human ether-a-go-go related gene (hERG) receptor (Homo sapiens, UniProt Q12809); assay: hERG safety pharmacology; assay type: binding; conditions: measured concentration of 70 nM (n=2)
Sequence of human ether-a-go-go related gene (hERG) receptor (Q12809 whole entry): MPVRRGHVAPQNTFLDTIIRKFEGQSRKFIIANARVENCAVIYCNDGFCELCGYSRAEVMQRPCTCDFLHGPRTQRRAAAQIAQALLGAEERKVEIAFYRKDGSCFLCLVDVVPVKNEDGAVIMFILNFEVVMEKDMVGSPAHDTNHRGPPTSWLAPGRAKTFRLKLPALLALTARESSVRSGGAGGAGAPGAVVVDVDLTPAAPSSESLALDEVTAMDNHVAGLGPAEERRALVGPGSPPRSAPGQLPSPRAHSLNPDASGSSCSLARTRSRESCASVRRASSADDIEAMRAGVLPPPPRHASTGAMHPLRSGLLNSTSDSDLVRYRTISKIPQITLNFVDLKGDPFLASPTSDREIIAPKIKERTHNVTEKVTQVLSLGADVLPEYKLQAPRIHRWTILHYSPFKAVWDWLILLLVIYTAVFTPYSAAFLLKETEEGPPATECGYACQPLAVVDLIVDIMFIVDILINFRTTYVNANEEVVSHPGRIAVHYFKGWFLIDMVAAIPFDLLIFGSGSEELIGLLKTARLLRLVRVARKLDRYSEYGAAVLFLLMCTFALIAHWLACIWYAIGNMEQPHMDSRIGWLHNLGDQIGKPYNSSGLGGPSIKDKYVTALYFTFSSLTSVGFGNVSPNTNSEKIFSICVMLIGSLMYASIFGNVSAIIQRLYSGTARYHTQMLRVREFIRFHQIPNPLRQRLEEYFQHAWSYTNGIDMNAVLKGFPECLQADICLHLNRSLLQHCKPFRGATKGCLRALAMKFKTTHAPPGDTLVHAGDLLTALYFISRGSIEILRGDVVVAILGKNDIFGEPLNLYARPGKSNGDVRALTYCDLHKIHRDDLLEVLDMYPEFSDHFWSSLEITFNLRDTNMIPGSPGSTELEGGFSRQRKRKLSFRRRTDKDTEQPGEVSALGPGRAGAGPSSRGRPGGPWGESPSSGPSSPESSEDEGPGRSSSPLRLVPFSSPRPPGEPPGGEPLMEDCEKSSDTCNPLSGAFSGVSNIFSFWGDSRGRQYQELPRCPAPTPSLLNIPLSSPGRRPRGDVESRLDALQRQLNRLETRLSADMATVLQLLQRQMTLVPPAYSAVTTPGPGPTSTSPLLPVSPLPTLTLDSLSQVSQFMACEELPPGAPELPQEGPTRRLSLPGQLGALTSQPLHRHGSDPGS
Experimental: Safety pharmacology studies were conducted with ganaxalone.

rats = assay: Intravenous ganaxolone in rats: EEG and status epilepticus models; assay type: in vivo, rat
[3] = Integrated adverse events from placebo controlled studies of ganaxolone; assay type: in vivo, human; conditions: Ganaxolone n = 750, placebo controlled studies
Text: As noted in Table 6, across multiple placebo controlled studies of ganaxolone across multiple indications including epilepsy, few side effects are reported that occur at a rate higher than those reported in placebo-treated subjects. These side effects are generally mild and have always been reversible. […] Four of the 7 children enrolled into this study remain on ganaxolone. Adverse events in this study are similar to those reported for all placebo controlled studies completed to date as summarized in Table 6 below.

dogs = assay: Cardiovascular safety pharmacology, single dose in dogs; assay type: in vivo, dog; conditions: single dose of up to 15 mg/kg

Structure (SMILES): CC(=O)[C@H]1CC[C@H]2[C@@H]3CC[C@H]4C[C@](C)(O)CC[C@]4(C)[C@H]3CC[C@]12C [Ganaxolone, 3α-hydroxy-3β-methyl-5α-pregnan-20-one]
- Local tolerance (rabbits): no findings
- Total number of TEAEs ([1]; CDD cohort): 45 TEAEs
- Subjects experiencing TEAEs ([1]; CDD cohort, safety population): 85.7%
- Discontinued during the 26-week open-label period, reason AE or SAE ([1]; CDKL5 N = 7): 0 n (%)
- Discontinued during the 26-week open-label period, reason lack of efficacy ([1]; CDKL5 N = 7): 1 n (%)
- Discontinued during the 26-week open-label period, reason AE or SAE ([1]; CSWS N = 2): 1 n (%)
- Discontinued during the 26-week open-label period, reason lack of efficacy ([1]; CSWS N = 2): 1 n (%)
- Subjects experiencing TEAEs ([1]; CSWS cohort): 50.0%
- Total number of TEAEs ([1]; CSWS cohort): 7 TEAEs
- Discontinued during the 26-week open-label period, reason AE or SAE ([1]; LGS N = 10): 1 (10.0) n (%)
- Discontinued during the 26-week open-label period, reason lack of efficacy ([1]; LGS N = 10): 3 (30.0) n (%)
- Subjects experiencing TEAEs ([1]; LGS cohort): 70.0%
- Total number of TEAEs ([1]; LGS cohort): 24 TEAEs
- Adverse event: Abdominal pain ([1]; PCDH19 N = 11): 2 (18.2) N (%)
- Adverse event: Fatigue ([1]; PCDH19 N = 11): 3 (27.3) N (%)
- Adverse event: Headache ([1]; PCDH19 N = 11): 3 (27.3) N (%)
- Adverse event: Pyrexia ([1]; PCDH19 N = 11): 2 (18.2) N (%)
- Adverse event: Seizure ([1]; PCDH19 N = 11): 3 (27.3) N (%)
- Adverse event: Somnolence ([1]; PCDH19 N = 11): 4 (36.4) N (%)
- Adverse event: Vomiting ([1]; PCDH19 N = 11): 2 (18.2) N (%)
- Discontinued during the 26-week open-label period, reason AE or SAE ([1]; PCDH19 N = 11): 2 n (%)
- Discontinued during the 26-week open-label period, reason lack of efficacy ([1]; PCDH19 N = 11): 3 n (%)
- Subjects experiencing TEAEs ([1]; PCDH19 cohort): 100.0%
- Total number of TEAEs ([1]; PCDH19 cohort): 95 TEAEs
- Discontinued during the 26-week open-label period, reason AE or SAE ([1]; Total N = 30): 4 n (%)
- Discontinued during the 26-week open-label period, reason lack of efficacy ([1]; Total N = 30): 8 n (%)
- Deaths ([1]; all cohorts): No deaths
- Subjects experiencing SAEs ([1]; all cohorts, N=30): 20.0%
- Subjects overall experiencing TEAEs ([1]; all cohorts, N=30): 83.3%
- Subjects with a TEAE that led to discontinuation of study drug ([1]; all cohorts, N=30): 13.3%
- Subjects with mild TEAEs ([1]; all cohorts, N=30): 23.3%
- Subjects with moderate TEAEs ([1]; all cohorts, N=30): 46.7%
- Subjects with severe TEAEs ([1]; all cohorts, N=30): 13.3%
- Subjects with treatment-related TEAEs ([1]; all cohorts, N=30): 53.3%
- Pulmonary effects (female rats): No pulmonary effects
- Interaction with hERG receptor [2]: did not interact
- Sedative / anaesthetic response (rats): did not cause a full anaesthetic response
- EEG effect (rats; otherwise normal rats): induce burst suppression-like electroencephalogram (EEG) patterns
- Adverse event: Dizziness [3]: 95 (13%) n (%)
- Adverse event: Fatigue [3]: 51 (7%) n (%)
- Adverse event: Headache [3]: 37 (5%) n (%)
- Adverse event: Somnolence [3]: 134 (18%) n (%)
- Effect on cardiovascular parameters (dogs): no effect
